Test results reported in paper PMC6651024, “LIR Motif-Containing Hyperdisulfide β-Ginkgotide is Cytoprotective, Adaptogenic, and Scaffold-Ready” (Molecules, 2019).
Where two headings read alike, the source gives them in different places. Where a SMILES comes first, the peptide text is derived from it.

Key:
Beclin-1 (BECN1) = experiment: Western blot of autophagy marker Beclin-1 in SH-SY5Y cells; type: cell-based, human; details: western blot densitometry relative to GAPDH, normalized to vehicle control, mean, triplicates
Method: The LIR-containing proteins regulate autophagosome formation by interacting with the protein Atg8 (autophagy-related gene, Atg) family through their LIR sequences. […] The SH-SY5Y cells were cultured with or without β-gB1. The autophagy markers, Beclin-1 (BECN1), LC3B-I, and LC3B-II, were identified and quantified by western blot analysis. Beclin-1 plays an important role in regulating both autophagy and cell death, whereas LC3B is an important component of the autophagy pathway and the most widely used marker for autophagosomes. Two of the processed LC3B protein are LC3B-I and LC3B-II. LC3B-I is a truncated LC3B. In contrast, LC3B-II is a truncated and lipidated version of LC3B-I [28, 29]. Importantly, LC3B-II is centrally involved in the events of autophagosome membrane expansion and fusion. […]
A 25 µg equivalent quantity of each protein samples were resolved on a 10% and 15% SDS-PAGE gel accordingly and transferred onto a nitrocellulose membrane. […] Protein bands were quantitated densitometrically using ImageJ software (ImageJ15.0b, Wayen Rasband, NIH, Bethesda, Maryland, USA), expressed relative to GAPDH, and normalized to the vehicle control cells. […]

SH-SY5Y cells = type: cell-based, mouse; details: 48 h hypoxia, MTT
Method: (§1) Autophagy is an integrated stress response that clears the subcellular damages. Previous studies have shown that such damages can be induced by hypoxia and hypoxia-reoxygenation stress. Clearing subcellular damages would increase survivability. In traditional medicine, G. biloba is used as an herbal remedy for acute ischemic stroke and post-stroke recovery. To examine the effects of β-gB1 in hypoxia stress, we used cardio-myoblast H9c2 and SH-SY5Y cells. Cells were cultured with or without β-gB1 and incubated in a hypoxic environment for 48 h before the assessment of cell survival by the MTT assay. […] Importantly, when the concentration of β-gB1 was reduced tenfold from 10 to 1 µM, a 22–24% increase of survivability was still observed in H9c2 and SH-SY5Y cells (Figure 3A–D). […]
(§2) Cells were cultured in DMEM with or without β-gB1/S-alkylated β-gB1 (β-gB1Alk) for 48 h under normoxia, hypoxia, and hypoxia-reoxygenation conditions. […] The culture medium was then aspirated, and purple formazan crystals were dissolved in DMSO for colorimetric quantification at 570 nm using a microplate reader with a reference wavelength of 630 nm. […]

H9c2 cells = type: cell-based, rat; details: 48 h hypoxia, MTT
Method: as §1, §2

[1] = Thermal stability by far-UV circular dichroism spectroscopy; type: physicochemical; details: heating up to 90 °C (20, 55, 90 °C); 42 µM peptide in sodium phosphate buffer pH 7.5; 190-260 nm
Method: The secondary structure and thermal stability of the synthetic β-gB1 were assessed using circular dichroism (CD) spectroscopy. The far-UV CD data of β-gB1 were acquired at 20 °C, and secondary structure composition was predicted using the CDSSTR algorithm with a normalized root mean square deviation (RMSD) value of 0.021. The CD spectroscopy spectra agreed with the predicted secondary structure of folded β-gB1, which consists 28% strands, 16% turns, 1% helices, and 55% unordered structures (Figure 1A). The spectrum is in strike contrast with that of the S-reduced β-gB1, which is devoid of a secondary structure (Figure 1A).
Far-UV CD spectra were recorded for the synthetic and folded β-ginkgotide β-gB1 (42 µM) in a sodium phosphate buffer (pH 7.5) on a Chirascan™ CD spectrometer (Applied Photophysics, Leatherhead, UK) equipped with a temperature controller. Spectra were acquired between 190 and 260 nm from 20 to 90 °C using a 1 mm path-length quartz cuvette, a 1 nm spectral bandwidth, and a 1 nm step size. CD spectroscopy data were analyzed for secondary structure content using CDSSTR [23]. CD data were expressed as mean residue ellipticity (in deg cm^2dmol^−1).

CC[C@H](C)[C@@H]1NC(=O)[C@@H]2CSSC[C@H](NC(=O)CNC(=O)[C@@H](NC(=O)[C@H](CCC(=O)O)NC(=O)[C@@H](N)Cc3ccc(O)cc3)[C@@H](C)O)C(=O)N[C@@H](CCCCN)C(=O)N[C@@H](CCCNC(=N)N)C(=O)N[C@H]3CSSC[C@@H](C(=O)O)NC(=O)[C@H](CSSC[C@H](NC3=O)C(=O)N[C@@H](Cc3ccc(O)cc3)C(=O)N[C@@H](CC(C)C)C(=O)N[C@@H](CC(=O)O)C(=O)N[C@@H](CCC(=O)O)C(=O)N[C@@H](Cc3ccc(O)cc3)C(=O)NCC(=O)N2)NC(=O)[C@H](CCCNC(=N)N)NC1=O [β-gB1] (HELM PEPTIDE1{Y.E.T.G.C.K.R.C.C.Y.L.D.E.Y.G.C.I.R.C.C}$PEPTIDE1,PEPTIDE1,5:R3-16:R3|PEPTIDE1,PEPTIDE1,8:R3-20:R3|PEPTIDE1,PEPTIDE1,9:R3-19:R3$$$V2.0; N-terminus and C-terminus assumed)
Increase of BECN1 expression vs control (Beclin-1 (BECN1)): 1.5 fold | Increase of cell survivability under hypoxia (SH-SY5Y cells; 1 µM peptide, range printed jointly for H9c2 and SH-SY5Y): 22–24% | Cytoprotective effect under hypoxia (in words) (SH-SY5Y cells; 10 µM peptide, compared with 37% in H9c2): comparable cytoprotective effect | Increase of cell survivability under hypoxia (H9c2 cells; H9c2, 1 µM peptide, range printed jointly for H9c2 and SH-SY5Y): 22–24% | Increase of cell survivability under hypoxia (H9c2 cells; H9c2, 10 µM peptide, triplicates): 37% | Effect of heating on far-UV CD spectrum (thermal denaturation) [1]: did not alter its CD spectrum
